From US20030073731A1, “Compositions and methods of the use thereof achiral analogues of CC-1065 and the duocarmycins” (priority 2000, published 2003)
Where two headings read alike, the source gives them in different places.

Key:
HOP-62 = assay: cells; conditions: Homo sapiens
NCI-H460 = assay: NCI in-vitro cytotoxicity screen, Non-Small Cell Lung Cancer panel; assay type: cell-based; conditions: Homo sapiens
Experimental: The compounds of this invention were also tested against the panel of 60 human cancer cell lines at the National Cancer Institute, Bethesda, Md. […] The cytotoxicity studies were conducted using a 48 hour exposure, and measuring the optical density of sulforhodamine B-derived color.

ACHN = assay: cells; conditions: Homo sapiens
HCC-2998 = assay: cells; conditions: Homo sapiens
HT29 = assay: cells; conditions: Homo sapiens
OVCAR-8 = assay: cells; conditions: Homo sapiens
[1] = system: MCF-7 (human breast cancer cells); assay: cells; assay type: cell-based
Experimental: (§1) Cells were seeded in 96-well microtiter plates at densities of 1000 cells/well. The optimal seeding density was determined to ensure exponential growth in control wells throughout the experimental period and to obtain a linear relationship between absorbance at 492 nm and cell number when analyzed by the sulforhodamine B (SRB) assay (43). 24 hours after seeding the cells were incubated for 1 hour or continuously for 3 days with the drugs (concentration range 0.01 to 500 pM). The cells were washed once and then incubated in drug free medium for 6 days. At the end of the incubation cell growth was determined by the SRB assay, which quantifies viable cells by measuring their total cellular protein content. […] Similar studies were conducted against the growth of PC3 (human prostate cancer cells) and MCF-7 (human breast cancer cells).

LOX IMVI = assay: cells; conditions: Homo sapiens
SK-MEL-5 = assay: cells; conditions: Homo sapiens
RPMI-8226 = assay: cells; conditions: Homo sapiens
M14 = assay: cells; conditions: Homo sapiens
SW-620 = assay: cells; conditions: Homo sapiens
UACC-62 = assay: cells; conditions: Homo sapiens
SK-MEL-28 = assay: cells; conditions: Homo sapiens
MDA-MB-231/ATCC = assay: cells; conditions: Homo sapiens
[2] = system: human colon adenocarcinoma cell line, LS 174T; assay: cells; conditions: LS174T
Experimental: as §1

[3] = system: panel of 60 human cancer cell lines; conditions: 48 hour exposure
SF-539 [4] = assay: cells; conditions: Homo sapiens
NCI-H23 [5] = assay: cells; conditions: Homo sapiens
NCI-H226 [6] = assay: cells; conditions: Homo sapiens
HCT-15 = assay: cells; conditions: Homo sapiens
MALME-3M = assay type: cell-based, human
NCI-H23 [7] = system: NCI-H23
plasmid pBR322 DNA = assay: Taq polymerase stop assay; assay type: biochemical
NCI-H226 [8] = system: NCI-H226
SF-539 [9] = system: SF-539

Experimental for human H522 lung cancer: For these assays, human tumor cells are cultivated in polyvinylidene fluoride (PVDF) hollow fibers, and a sample of each cell line is implanted into each of two physiologic compartments (intraperitoneal and subcutaneous) in mice. […] Three mice are treated with potential antitumor compounds at each of 2 test doses by the intraperitoneal route using a QD×4 treatment schedule. Vehicle controls consist of 6 mice receiving the compound diluent only. The fiber cultures are collected on the day following the last day of treatment. To assess anticancer effects, viable cell mass is determined for each of the cell lines using a formazan dye (MTT) conversion assay. From this, the %T/C can be calculated using the average optical density of the compound treated samples divided by the average optical density of the vehicle controls. In addition, the net increase in cell mass can be determined for each sample as a sample of fiber cultures are assessed for viable cell mass on the day of implantation into mice. Thus, the cytostatic and cytocidal capacities of the test compound can be assessed.
The data are reported as %T/C for each of the 2 compound doses against each of the cell lines with separate values calculated for the intraperitoneal and subcutaneous samples.
Compounds are selected for further in vivo testing in standard subcutaneous xenograft models on the basis of several hollow fiber assay criteria. […] The intraperitoneal and subcutaneous samples are scored separately so that criteria (1) and (2) can be evaluated. Compounds with a combined IP+SC score≧20, a SC score×8 or a net cell kill of one or more cell lines are referred for xenograft testing. These criteria were statistically validated by comparing the activity outcomes of ≧80 randomly selected compounds in the hollow fiber assay and in the xenograft testing.

COC(=O)c1[nH]c2c(O)cc(NC(=O)c3cc4cc(OC)c(OC)c(OC)c4[nH]3)c(CCCl)c2c1C(=O)OC [Compound 22, Dimethyl 4-(2-chloroethyl)-7-hydroxy-5-(5,6,7-trimethoxyindole-2-carboxamido)indole-2,3-dicarboxylate]
GI50 (HOP-62; HOP-62): 91.4 nM | CC50 (HOP-62; HOP-62, read-out: LC50): 8510 nM | GI50 (NCI-H460): 114 nM | GI50 (ACHN): 44.6 nM | CC50 (ACHN; read-out: LC50): > 50000 nM | GI50 (HCC-2998; HCC 2998): 102 nM | CC50 (HCC-2998; HCC 2998, read-out: LC50): 10800 nM | GI50 (HT29; HT-29): 68.1 nM | CC50 (HT29; HT-29, read-out: LC50): 2340 nM | GI50 (OVCAR-8; OVCAR-8): 70.9 nM | CC50 (OVCAR-8; OVCAR-8, read-out: LC50): 1760 nM | IC50 ([1]; MCF7, MCF-7, 1 hour exposure): 970 nM | IC50 ([1]; MCF7, MCF-7, Continuous exposure): 130 nM | GI50 (LOX IMVI): 81.7 nM | CC50 (LOX IMVI; read-out: LC50): 25600 nM | GI50 (SK-MEL-5; SK-MEL-5): 32.3 nM | CC50 (SK-MEL-5; SK-MEL-5, read-out: LC50): > 50000 nM | GI50 (RPMI-8226; RPMI-8226): 190 nM | CC50 (RPMI-8226; RPMI-8226, read-out: LC50): > 50000 nM | GI50 (M14; M14): 76.4 nM | CC50 (M14; M14, read-out: LC50): 368 nM | GI50 (SW-620; SW-620): 109 nM | CC50 (SW-620; SW-620, read-out: LC50): > 50000 nM | GI50 (UACC-62; UACC-62): 78.2 nM | CC50 (UACC-62; UACC-62, read-out: LC50): 436 nM | GI50 (SK-MEL-28; SK-MEL-28): 172 nM | CC50 (SK-MEL-28; SK-MEL-28, read-out: LC50): > 50000 nM | GI50 (MDA-MB-231/ATCC; MDA-MB-231): 171 nM | CC50 (MDA-MB-231/ATCC; MDA-MB-231, read-out: LC50): > 50000 nM | IC50 [2]: 4 nM | IC50 ([2]; 1 h): 1860 nM | cytotoxic activity in the NCI screen [3]: activity in the micromolar range | GI50 (SF-539 [4]; SF-539): 80.4 nM | CC50 (SF-539 [4]; SF-539, read-out: LC50): 608 nM | GI50 (NCI-H23 [5]; NCI-H23): 67.5 nM | CC50 (NCI-H23 [5]; NCI-H23, read-out: LC50): > 50000 nM | GI50 (NCI-H226 [6]; NCI-H226): 74.8 nM | CC50 (NCI-H226 [6]; NCI-H226, read-out: LC50): 2550 nM | GI50 (HCT-15; HCT-15): 259 nM | CC50 (HCT-15; HCT-15, read-out: LC50): > 50000 nM

4-(2-Chloroethyl)-3-[5-(5-benzofuran-2-carboxamido)indole-2-carboxamido]phenol [Compound 1]
GI50 (MALME-3M): 1840 nM | TGI (MALME-3M): 3.56E-06 Molar | IP+SC score (human H522 lung cancer): 18 | cell kill (human H522 lung cancer): significant cells kill was observed | IP score (human H522 lung cancer; intraperitoneal fibers): 8 | SC score (human H522 lung cancer; subcutaneous fibers): 10 | GI50 (SF-268): 13400 nM | TGI (SF-268): 2.78e-05 Molar | GI50 (MDA-MB-435): 1890 nM | TGI (MDA-MB-435): 3.75E-06 Molar | GI50 (NCI-H23 [7]): 1670 nM | TGI (NCI-H23 [7]): 3.38E-06 Molar | GI50 (TK-10): 2450 nM | TGI (TK-10): 5.85E-06 Molar | GI50 (A549/ATCC): 1980 nM | TGI (A549/ATCC): 6.58E-06 Molar | sequence selectivity compared with compound 27 (plasmid pBR322 DNA): stronger sequence selectivity than 27 | GI50 (CCRF-CEM): 1260 nM | TGI (CCRF-CEM): 5.28E-06 Molar | GI50 (NCI-H226 [8]): 4090 nM | TGI (NCI-H226 [8]): 1.62E-05 Molar | GI50 (OVCAR-3): 2130 nM | TGI (OVCAR-3): 4.69E-06 Molar | GI50 (SF-539 [9]): 1920 nM | TGI (SF-539 [9]): 4.16E-06 Molar | GI50 (MDA-N): 2280 nM | TGI (MDA-N): 5.47E-06 Molar | GI50 (KM12): 18800 nM | TGI (KM12): 3.50E-05 Molar | GI50 (786-0): 2620 nM | TGI (786-0): 1.07E-05 Molar | GI50 (NCI-H522): 933 nM | TGI (NCI-H522): 3.00E-06 Molar | GI50 (UO-31): 3000 nM | TGI (UO-31): 6.38E-06 Molar | GI50 (SF-295): 2320 nM | TGI (SF-295): 6.46E-06 Molar
